Bliss excess data for seven compounds are collected here from the supplement of paper PMC11061612.

What all share (assay): Bliss excess, mean over the matrix (fraction); higher = more synergy
Assay [1] relates to NCI-H2122 (Lung Adenocarcinoma). An outline of the steps: (§1)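 Cell lines in DMEM/F12 or RPMI with 10% FBS were plated in 1536-well plates, held 24 hours at 37°C, 5% CO2, then given two-drug dose matrices for 72 hours (DMSO typically 0.2%). Viability was read by CellTiter-Glo 2.0 luminescence and scaled as inhibition from 0 (vehicle wells) to 1 (blank wells). Combination Emax is the second-highest inhibition in the matrix; Bliss excess is observed combination effect minus expected EA + EB − EA·EB, EA and EB being single-agent effects.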

Assay [2] relates to HCC2998 (Colorectal Carcinoma). An outline of the steps: as §1
Assay [3] concerns KGN (Other Solid Carcinomas). A digest of the protocol:
as §1

Assay [4] relates to SNU-387 (Hepatocellular Carcinoma). An outline of the steps:
as §1

Assay [5] concerns COLO-668 (Small Cell Lung Carcinoma). A digest of the protocol:
as §1

The test system of assay [6] is A4-Fuk (B-Lymphoblastic Leukemia). An outline of the steps:
as §1

The test system of assay [7] is ALL-SIL (T-Lymphoblastic Leukemia). A digest of the protocol:
as §1

In assay [8] the test system is CADO-ES1 (Ewing's Sarcoma). A digest of the protocol: as §1
The subject of assay [9] is MOG-G-UVW (Low Grade Glioma). A digest of the protocol: as §1
In assay [10] the test system is LC-1-sq (Squamous Cell Lung Carcinoma). A digest of the protocol: as §1
Assay [11] concerns SKN (Other Solid Carcinomas). A digest of the protocol: as §1
Assay [12] relates to G-401 (Other Solid Carcinomas). An outline of the steps:
as §1

In assay [13] the test system is OACM5-1 (Esophageal Adenocarcinoma). An outline of the steps: as §1
The test system of assay [14] is SW872 (Other Solid Carcinomas). An outline of the steps:
as §1

Assay [15] relates to NCI-H1838 (Lung Adenocarcinoma). An outline of the steps: as §1
For the next assay, the system named is Hey (Ovarian Carcinoma). An outline of the steps:
as §1

Assay [16] deals with HAL-01 (B-Lymphoblastic Leukemia). A digest of the protocol: as §1
Assay [17] relates to NCI-H650 (Lung Adenocarcinoma). An outline of the steps:
as §1

The test system of assay [18] is SK-LU-1 (Lung Adenocarcinoma). A digest of the protocol:
as §1

In assay [19] the test system is KOPN-8 (B-Lymphoblastic Leukemia). An outline of the steps:
as §1

Regarding `COc1nnc2ccc(N3CCC(c4ccc(OCCN5CCN(C)C(=O)[C@H]5C)cc4)CC3)nn12` [AZD5153] + Cn1cnc2c(F)c(Nc3ccc(Br)cc3Cl)c(C(=O)NOCCO)cc21 [Selumetinib] (first compound max 1 µM, 7x7, partner max 10 µM), the Bliss excess in assay [1] was 0.0659; in [2], 0.0118; in [3], -0.002; in assay [4] it was 0.0012; in assay [5] it was 0.236; in assay [6], -0.0175. Further, the Bliss excess in [7] was -0.0303; in [8] it was -0.0469; in [9] it was -0.0045; in assay [10], 0.0073; in assay [11] it was -0.0084; in [12], -0.0761. The Bliss excess was -0.0306 in assay [13]; 0.0635 in assay [14]; 0.03 in [15]; -0.0092 in the assay with Hey (Ovarian Carcinoma); 0.0347 in assay [16]; 0.0339 in assay [17]. Besides, the Bliss excess in assay [18] turned out to be 0.0022; in assay [19], 0.114.
With `Cc1c2c(nn1C)CSCc1cc(n(C)n1)CSc1cc(c3ccccc3c1)OCCCc1c(C(=O)O)n(C)c3c-2c(Cl)ccc13` [AZD5991] + C1CN(CCC1(C(=O)N[C@@H](CCO)C2=CC=C(C=C2)Cl)N)C3=NC=NC4=C3C=CN4 [Capivasertib] (first compound max 1 µM, 7x7, partner max 3 µM), the Bliss excess is 0.0061 in assay [1]; -0.0434 in assay [2]; 0.0051 in [3]; 0.0124 in assay [4]; 0.0516 in assay [5]; -0.0011 in [6]. In addition, the Bliss excess in assay [7] is -0.0384; in [8], -0.029; in [9], -0.0173; in assay [10], -0.0015; in assay [11], -0.024; in assay [12] it was 0.0486. In addition, the Bliss excess in [13] was -0.0123; in [14] it was 0.0057; in [15] it was 0.0017; in the assay on Hey (Ovarian Carcinoma) it was -0.0349; in assay [16], 0.0298; in assay [17] it was -0.0044. The Bliss excess in [18] is -0.0042; in assay [19] it was -0.0468.
Turning to `Cc1c2c(nn1C)CSCc1cc(n(C)n1)CSc1cc(c3ccccc3c1)OCCCc1c(C(=O)O)n(C)c3c-2c(Cl)ccc13` [AZD5991] + CC1(C)CCC(CN2CCN(c3ccc(C(=O)NS(=O)(=O)c4ccc(NCC5CCOCC5)c([N+](=O)[O-])c4)c(Oc4cnc5[nH]ccc5c4)c3)CC2)=C(c2ccc(Cl)cc2)C1 [Venetoclax] (first compound max 1 µM, 7x7, partner max 1 µM), the Bliss excess in assay [1] was 0.0016; in [2], -0.0362; in assay [3], -0.0308; in assay [4], -0.0426; in assay [5] it was 0.0932; in assay [6] it was -0.03. For the same compound, the Bliss excess in assay [7] was 0.0333; in assay [8], -0.0023; in [9] it was 0.0083; in [10] it was 0.0184; in assay [11] it was -0.0031; in [12], 0.0446. Moreover, the Bliss excess in [13] is 0.0228; in assay [14], -0.0443; in [15] it was 0.0125; with Hey (Ovarian Carcinoma) it was -0.0236; in assay [16] it was 0.0231; in assay [17] it was -0.0014. For the same compound, the figures for the Bliss excess in [18] and in [19] were -0.0368 and -0.102, respectively.
On to `Cc1c2c(nn1C)CSCc1cc(n(C)n1)CSc1cc(c3ccccc3c1)OCCCc1c(C(=O)O)n(C)c3c-2c(Cl)ccc13` [AZD5991] + CCN(CCO)CCCOc1ccc2c(Nc3cc(CC(=O)Nc4cccc(F)c4)[nH]n3)ncnc2c1 [AZD2811] (first compound max 1 µM, 7x7, partner max 1 µM), for which the Bliss excess in assay [1] was 0.0065; in assay [2], 0.0679; in assay [3], -0.0067; in assay [4], -0.0333; in assay [5], 0.0172; in assay [6], 0.0579. Moreover, the Bliss excess in assay [7] is -0.0282; in assay [8] it was 0.0101; in [9], 0.0197; in [10] it was 0.0425; in [11] it was 0.0261; in [12] it was -0.0061. Further, the Bliss excess was determined as 0.0416 in assay [13]; 0.0237 in [14]; 0.0109 in [15]; 0.0293 with Hey (Ovarian Carcinoma); 0.0012 in assay [16]; 0.0512 in assay [17]. The Bliss excess is -0.0306 in assay [18] and -0.0289 in assay [19].
As to `Cc1c2c(nn1C)CSCc1cc(n(C)n1)CSc1cc(c3ccccc3c1)OCCCc1c(C(=O)O)n(C)c3c-2c(Cl)ccc13` [AZD5991] + CN(C)CCCOc1ccc(-c2ccc3ncc4c(c3c2)n(C2CCOCC2)c(=O)n4C)cn1 [AZD0156] (first compound max 1 µM, 7x7, partner max 1 µM), the Bliss excess was 0.0237 in [1]; 0.0003 in assay [2]; -0.0314 in assay [3]; -0.0536 in [4]; 0.0135 in [5]; -0.0032 in [6]. Also, the Bliss excess in assay [7] is 0.0049; in assay [8] it was -0.0098; in assay [9], -0.0104; in assay [10], 0.0103; in [11], -0.0055; in assay [12], 0.0014. In addition, the Bliss excess in [13] was -0.0029; in assay [14] it was 0.0164; in [15], 0.043; in the assay on Hey (Ovarian Carcinoma) it was -0.0039; in assay [16], -0.0246; in [17], 0.0527. Also, the Bliss excess in [18] was -0.0889; in assay [19], -0.118.
`Cc1c2c(nn1C)CSCc1cc(n(C)n1)CSc1cc(c3ccccc3c1)OCCCc1c(C(=O)O)n(C)c3c-2c(Cl)ccc13` [AZD5991] + C[C@@H]1COCCN1C2=NC(=NC(=C2)C3(CC3)[S@](=N)(=O)C)C4=C5C=CNC5=NC=C4 [AZD6738] (first compound max 1 µM, 7x7, partner max 10 µM): the Bliss excess in [1] is 0.0199; in [2], 0.044; in [3], 0.0182; in assay [4], 0.0408; in assay [5], -0.0064; in assay [6], -0.0297. Besides, the Bliss excess in assay [7] is 0.0316; in assay [8] it was 0.0135; in assay [9], 0.0058; in assay [10] it was 0.047; in [11] it was -0.0121; in [12], -0.0341. In addition, the Bliss excess in [13] was 0.0257; in [14], 0.0323; in assay [15] it was -0.0021; in the assay on Hey (Ovarian Carcinoma), 0.012; in [16], -0.0042; in [17], 0.0217. Moreover, the Bliss excess in assay [18] is -0.0032; in assay [19], -0.0067.
`Cc1c2c(nn1C)CSCc1cc(n(C)n1)CSc1cc(c3ccccc3c1)OCCCc1c(C(=O)O)n(C)c3c-2c(Cl)ccc13` [AZD5991] + C[C@@H](Nc1cc(F)cc(F)c1)c1cc(C(=O)N(C)C)cc2c(=O)cc(N3CCOCC3)oc12 [AZD8186] (first compound max 1 µM, 7x7, partner max 3 µM): the Bliss excess was 0.0684 in assay [1]; 0.0026 in assay [2]; -0.0528 in [3]; -0.0089 in [4]; -0.0011 in assay [5]; -0.023 in [6]. Besides, the Bliss excess is -0.0301 in [7]; -0.0479 in assay [8]; -0.0451 in assay [9]; 0.0352 in [10]; -0.0142 in assay [11]; -0.0579 in assay [12]. For the same compound, the Bliss excess in assay [13] is 0.0078; in assay [14], -0.0214; in [15], 0.0503; in the assay on Hey (Ovarian Carcinoma), 0.0023; in [16] it was 0.015; in assay [17], -0.0023. Besides, the Bliss excess in assay [18] stood at 0.0004; in [19], 0.0014.
